Measurements published in the NIST ThermoML archive (doi:10.1021/je900077g).
Numbers after ± are expanded uncertainties.

Experiment: excess molar enthalpy (molar enthalpy of mixing); xn = mol fraction of the nth substance listed
Conditions: 308.15 K, 101 kPa, Liquid, Calvet calorimetry

C1COCCO1 [1,4-dioxane] + C1CCCCC1
Conditions | excess molar enthalpy [kcal/mol]
x2 = 0.101 | 0.136 ± 0.00335
x2 = 0.204 | 0.251 ± 0.00359
x2 = 0.288 | 0.319 ± 0.00359
x2 = 0.408 | 0.374 ± 0.00382
x2 = 0.506 | 0.3872 ± 0.00382
x2 = 0.606 | 0.376 ± 0.00382
x2 = 0.705 | 0.343 ± 0.00359
x2 = 0.803 | 0.275 ± 0.00359
x2 = 0.9 | 0.166 ± 0.00359

C1CCOCC1 [tetrahydropyran] + C1CCCCC1
Conditions | excess molar enthalpy [kcal/mol]
x2 = 0.101 | 0.0375 ± 0.00263
x2 = 0.2 | 0.0703 ± 0.00263
x2 = 0.3 | 0.0985 ± 0.00263
x2 = 0.4 | 0.117 ± 0.00263
x2 = 0.499 | 0.126 ± 0.00263
x2 = 0.606 | 0.124 ± 0.00263
x2 = 0.699 | 0.11 ± 0.00263
x2 = 0.8 | 0.0848 ± 0.00263
x2 = 0.9 | 0.0473 ± 0.00263

C1CCOCC1 [tetrahydropyran] + C1COCCO1
Conditions | excess molar enthalpy [kcal/mol]
x1 = 0.104 | 0.0356 ± 0.00239
x1 = 0.201 | 0.0595 ± 0.00239
x1 = 0.299 | 0.0753 ± 0.00239
x1 = 0.398 | 0.0841 ± 0.00263
x1 = 0.497 | 0.0863 ± 0.00263
x1 = 0.612 | 0.0817 ± 0.00263
x1 = 0.716 | 0.0707 ± 0.00239
x1 = 0.8 | 0.0562 ± 0.00239
x1 = 0.9 | 0.0323 ± 0.00239
